This note sets out measurements from patent publication US4072744A, “N^2 -naphthalenesulfonyl-L-argininamides and the pharmaceutically acceptable salts thereof” (Mitsubishi Chemical Industries Limited, priority 1974, dated 1978).

This data set is described as follows: acute toxicity (LD50) by intraperitoneal administration in mice. The conditions noted are these: mouse, in vivo, ip, mice (male, 20 g). From the text: Representative LD50 values, for example, for N^2 -(5,6,7,8-tetrahydro-1-naphthalenesulfonyl)-N-methoxyethylglycine, N^2 -(7-methyl-2-naphthalenesulfonyl)-N-butylglycine and N^2 -(6,7-dimethyl-1-naphthalenesulfonyl)-N-methoxyethylglycine are above 1,500 milligrams per kilogram, respectively.
The compound `COCCN(CC(=O)O)C(=O)[C@H](CCCNC(=N)N)NS(=O)(=O)c1cccc2c1CCCC2` [Sample 3, N^2-(5,6,7,8-tetrahydro-1-naphthalenesulfonyl)-L-arginyl-N-methoxyethylglycine] had an LD50 above 1500 mg/kg.
Compound `COCCN(CC(=O)O)C(=O)[C@H](CCCNC(=N)N)NS(=O)(=O)c1cccc2cc(C)c(C)cc12` [Sample 23, N^2-(6,7-dimethyl-1-naphthalenesulfonyl)-L-arginyl-N-methoxyethylglycine] gave an LD50 above 1500 mg/kg.
On to `CCCCN(CC(=O)O)C(=O)[C@H](CCCNC(=N)N)NS(=O)(=O)c1ccc2ccc(C)cc2c1` [Sample 14, N^2-(7-methyl-2-naphthalenesulfonyl)-L-arginyl-N-butylglycine], for which the LD50 is above 1500 mg/kg.
